“And” between values parts separate entries of the source, which are not always exact repeats. Equal entries are not always repeated. Where two headings read alike, the source gives them in different places.
Columns and labels:
[1] = tested on: Herpes virus; type: in vivo, mouse
[2] = tested on: Influenza B Massachusetts virus; assay: Chemoprophylaxis of Influenza B Massachusetts virus infection in mice; type: in vivo, mouse; settings: oral
Method: The activity of four compounds on Influenza B Mass. was tested in mice.
A portion of a commercially available sample of amantadine was recrystallized from isopropanol. The activity of the material against Influenza B Mass. was tested for the sample as obtained, the recrystallized portion, and the mother liquor obtained from recrystallizing the portion.

[3] = tested on: virus infections; assay: Antiviral screening program, several viruses; settings: mouse, in vivo
[4] = tested on: Influenza Ann Arbor virus; assay: Chemoprophylaxis of Influenza Ann Arbor (A1) virus infection in mice; type: in vivo, mouse; settings: oral
[5] = tested on: Influenza PR 8 virus; assay: Chemoprophylaxis of Influenza PR 8 virus infection in mice; type: in vivo, mouse; settings: oral

NNC(=S)NC12CC3CC(CC(C3)C1)C2
No. animals surviving when 18/20 of controls are dead ([1]; oral, total dose 4pg): 1
Survivors ([1]; oral, total dose 4pg): 1
No. animals surviving when 18/20 of controls are dead ([1]; oral, total dose 40pg): 1
Survivors ([1]; oral, total dose 40pg): 1
No. animals surviving when 18/20 of controls are dead ([1]; oral, total dose 400pg): 3
Survivors ([1]; oral, total dose 400pg): 3
No. animals surviving when 18/20 of controls are dead ([1]; oral, total dose 4ng): 2
Survivors ([1]; oral, total dose 4ng): 2
No. animals surviving when 18/20 of controls are dead ([1]; oral, total dose 40ng): 2
Survivors ([1]; oral, total dose 40ng): 2
No. animals surviving when 18/20 of controls are dead ([1]; oral, total dose 400ng): 3
Survivors ([1]; oral, total dose 400ng): 3

NC12CC3CC(CC(C3)C1)C2 [Commercial amantadine, amantadine, reference compound]
No. animals surviving after 11 days ([2]; total dose 60 ng): 3
Survivors ([2]; total dose 60 ng): 0
No. animals surviving after 11 days ([2]; total dose 600 ng): 3
Survivors ([2]; total dose 600 ng): 3
No. animals surviving after 11 days ([2]; total dose 6 μg): 7
Survivors ([2]; total dose 6 μg): 5
No. animals surviving after 11 days ([2]; total dose 60 μg): 3
Survivors ([2]; total dose 60 μg): 2
No. animals surviving after 11 days ([2]; total dose 600 μg): 5
Survivors ([2]; total dose 600 μg): 5
No. animals surviving after 11 days ([2]; total dose 6 mg): 4
Survivors ([2]; total dose 6 mg): 2

NC(=S)NN=C1CCCCC1 [Cyclohexanone, thiosemicarbazone]
No. animals surviving after 11 days ([2]; total dose 5pg): 7
No. animals surviving when 16/20 of controls are dead ([2]; total dose 5pg): 5
Survivors ([2]; total dose 5pg): 5
No. animals surviving after 11 days ([2]; total dose 50pg): 4
No. animals surviving when 16/20 of controls are dead ([2]; total dose 50pg): 3
Survivors ([2]; total dose 50pg): 2
No. animals surviving after 11 days ([2]; total dose 500pg): 2
No. animals surviving when 16/20 of controls are dead ([2]; total dose 500pg): 2
Survivors ([2]; total dose 500pg): 2
No. animals surviving after 11 days ([2]; total dose 5ng): 3
No. animals surviving when 16/20 of controls are dead ([2]; total dose 5ng): 2
Survivors ([2]; total dose 5ng): 2
No. animals surviving after 11 days ([2]; total dose 50ng): 7
No. animals surviving when 16/20 of controls are dead ([2]; total dose 50ng): 7
Survivors ([2]; total dose 50ng): 5
No. animals surviving after 11 days ([2]; total dose 500ng): 2
No. animals surviving when 16/20 of controls are dead ([2]; total dose 500ng): 1
Survivors ([2]; total dose 500ng): 1

NNc1nncc2ccccc12 [Hydralazine, hydralazine, reference compound]
activity (in words) [3]: effective against Herpes virus

NN.O=S(=O)(O)O [Hydrazine Sulfate, hydrazine sulfate]
Survivors ([1]; oral, total dose 5 μg): 2
Survivors ([1]; oral, total dose .0005 μg): 3
Survivors ([1]; oral, total dose .005 μg): 4
Survivors ([1]; oral, total dose .05 μg): 0
Survivors ([1]; oral, total dose .5 μg): 1

NNC(=O)c1ccncc1 [Isoniazid, isoniazid, reference compound]
No. animals surviving after 5 days ([2]; total dose .000005 μg): 3
No. animals surviving when 100% controls are dead ([2]; total dose .000005 μg): 0
Survivors ([2]; total dose .000005 μg): 0
No. animals surviving after 5 days ([2]; total dose .00005 μg): 2
No. animals surviving when 100% controls are dead ([2]; total dose .00005 μg): 1
Survivors ([2]; total dose .00005 μg): 0
No. animals surviving after 5 days ([2]; total dose .0005 μg): 3
No. animals surviving when 100% controls are dead ([2]; total dose .0005 μg): 2
Survivors ([2]; total dose .0005 μg): 0
No. animals surviving after 5 days ([2]; total dose .005 μg): 5
No. animals surviving when 100% controls are dead ([2]; total dose .005 μg): 1
Survivors ([2]; total dose .005 μg): 0
No. animals surviving after 5 days ([2]; total dose .05 μg): 3
No. animals surviving when 100% controls are dead ([2]; total dose .05 μg): 1
Survivors ([2]; total dose .05 μg): 0
No. animals surviving after 5 days ([2]; total dose .5 μg): 3
No. animals surviving when 100% controls are dead ([2]; total dose .5 μg): 0
Survivors ([2]; total dose .5 μg): 0
Survivors ([4]; total dose .005 μg): 2
Survivors ([4]; total dose .05 μg): 2 and 1
Survivors ([4]; total dose .5 μg): 2 and 1
No. animals surviving after 7 days ([5]; total dose 5 μg): 5
Survivors ([5]; total dose 5 μg): 2
No. animals surviving after 7 days ([5]; total dose .0000005 μg): 1
Survivors ([5]; total dose .0000005 μg): 0
No. animals surviving after 7 days ([5]; total dose .000005 μg): 2
Survivors ([5]; total dose .000005 μg): 0
No. animals surviving after 7 days ([5]; total dose .00005 μg): 0
Survivors ([5]; total dose .00005 μg): 0
No. animals surviving after 7 days ([5]; total dose .0005 μg): 0
Survivors ([5]; total dose .0005 μg): 0
No. animals surviving after 7 days ([5]; total dose .005 μg): 1
Survivors ([5]; total dose .005 μg): 1
No. animals surviving after 7 days ([5]; total dose .05 μg): 2
Survivors ([5]; total dose .05 μg): 1
No. animals surviving after 7 days ([5]; total dose .5 μg): 2
Survivors ([5]; total dose .5 μg): 1
activity (in words) [3]: active against Influenza PR 8, Influenza Ann Arbor, Influenza B Mass., and Herpes virus
No. animals surviving after 6 days ([1]; mouse, in vivo, po): 2 and 1
Survivors ([1]; oral, total dose .0000005 μg): 1
No. animals surviving when 17/20 controls are dead ([1]; oral, total dose .000005 μg): 3
No. animals surviving after 6 days ([1]; oral, total dose .00005 μg): 0
No. animals surviving when 17/20 controls are dead ([1]; oral, total dose .00005 μg): 3
No. animals surviving after 6 days ([1]; oral, total dose .0005 μg): 3
No. animals surviving when 17/20 controls are dead ([1]; oral, total dose .0005 μg): 0
No. animals surviving when 17/20 controls are dead ([1]; oral, total dose .005 μg): 2
No. animals surviving when 17/20 controls are dead ([1]; oral, total dose .05 μg): 1
Survivors ([1]; oral, total dose .05 μg): 1

— US4032659A (priority 1975, dated 1977)
